From patent US12409162B2, “Carbazole derivatives sensitizing cells to anti-cancer agents” (CENTRE NATIONAL DE LA RECHERCHE SCIENTIFIQUE, priority 2019, dated 2025)
Read-outs that look alike come from different tables or passages of the source.

Legend:
HeLa cells [1] = test: Prestoblue cell viability assay on HeLa cells (compounds alone and with paclitaxel); format: cell-based; settings: for GI50: Homo sapiens, HeLa, 72 h
Procedure: (§1) Cell viability was analyzed using the colorimetric Prestoblue assay (Invitrogen, #A13262). Cells were seeded in 96 well microplates (Greiner, #655077) at a density of 2,500 cells per well and allowed to adhere for 24 h before being treated for 72 h with either DMSO (0.1% final concentration) or drugs at indicated concentrations. After the 72 h treatment, 10 μL A Prestoblue was added to each well and cells were incubated for another 45 min. The absorbance of each well was measured using FLUOstar Optima microplate reader (Excitation, 544 nm; Emission, 580 nm).
First, the cytotoxicity on HeLa cells of compounds (I-a), (I-c) (I-f), (I-h), (I-e), (I-m), (I-n) and (I-s) was assessed with the above described “prestoblue” assay.
Then, HeLa cells were treated during 72 hours with different concentrations of a mixture of paclitaxel (0.05, 0.1, 0.25, 0.5, 1, 2.5, 5 nM) and compounds (I-a), (I-f), (I-h), (I-e), (I-m), (I-n), (I-c) and (I-s).

RPE-1 cells = test: Prestoblue viability assay on non-cancerous RPE-1 cells; format: cell-based
Procedure: RPE-1 cells were incubated for 72 hours with the indicated combinations of compound (I-a)/paclitaxel. The percentage of viable cells was calculated following a Prestoblue assay, as described above. Data are presented as mean±SEM of 3 independent experiments.

4T1 cells = test: Prestoblue cell viability assay on murine cancer cells; format: cell-based; settings: mice breast cancer cell line (4T1 cells), 72 h
Procedure: as §1, with “μL” for “μL A”

[2] = system: microtubule dynamics in GFP-EB3 transfected cells; test: Microtubule dynamic instability by time-lapse fluorescence microscopy; format: cell-based; settings: 25 μM
Procedure: The effect of a high dose (25 μM) of compound (I-a) on microtubule dynamic instability parameters was measured using time-lapse fluorescence microscopy on GFP-EB3 transfected cells (Table 1).

HeLa cells [3] = test: Immunofluorescence of microtubules and DNA; format: cell-based
Procedure: The effect of a compound of formula (I) on cell cycle and mitosis of HeLa cells was analyzed by flow cytometry and immunofluorescence.
For immunofluorescence analysis, cells were grown for 48 hours on glass coverslips placed in 24-wells microplates. When cells reached 70% confluence the medium was replaced with a fresh one supplemented with compound (I-a). After a 5-hour exposure to compound (I-a), cells were fixed and permeabilized with −20° C. absolute methanol for 6 min. After washing and saturation with 3% BSA/PBS, cells were incubated for 45 min at room temperature (RT) with anti-alpha-tubulin antibody (1:4000). Cells were washed twice again and subsequently incubated with Alexa 488 conjugated anti-mouse antibody (1:1000) for 30 min at RT. DNA was stained with 20 μmol·L^−1 Hoechst 33342 and coverslips were mounted on microscopic slides with Mowiol 4-88 (Calbiochem, #475904). Images were captured with a Zeiss AxioimagerM2 microscope equipped with the acquisition software AxioVision and analyzed using the Fiji software.

HeLa cell tumors = test: HeLa cell xenograft tumor growth in mice; format: in vivo; settings: for weight of treated animals versus vehicle-treated animals: paclitaxel 2 to 8 mg/Kg or (I-a) 15 to 60 mg/Kg i.v. every two days during 10 days
Procedure: The effects on tumor growth of compound (I-a) and paclitaxel injected separately to the effect of a combined administration of compound (I-a) plus paclitaxel were compared in a tumor mouse model.
A first series of experiments (not shown) assessed that HeLa cell tumors were sensitive to therapeutic doses of paclitaxel. To that aim, mice bearing sizable tumors, formed of HeLa cells that have been xenografted, received intraveinous (i.v.) injections of paclitaxel (from 2 to 8 mg/Kg), every two days during 10 days. In the same experiment, the effect of compound (I-a) (from 15 to 60 mg/Kg, i.v.) injected with the same schedule was analyzed. […] The results confirmed the anti-tumor effect of high paclitaxel concentrations in this model. They also indicate that compound (I-a), when applied alone, has no significant anti-tumor activity, even at high concentrations.
A second experiment was conducted to study of the effect on tumor size of low (2 to 3 mg/Kg) paclitaxel doses in combination with different concentrations of compound (I-a).
Protocol for this combination study: 72 NMRI nude mice (5-week-old females) were injected subcutaneously with 10×10^6 exponentially dividing HeLa cells into the right flank. When tumors have reached a volume of about 200 mm 3 i.e. nine days after cell injection, mice were randomized in 9 groups of 8 mice each and drugs were injected intraveinously every two days. The first group received paclitaxel at 2 mg/kg, the second group received paclitaxel at 3 mg/Kg, the third group received compound (I-a) at 40 mg/Kg, the fourth group received compound (I-a) at 60 mg/Kg, the fifth group received a combination of compound (I-a) (40 mg/Kg) and paclitaxel (2 mg/Kg), the sixth group received a combination of compound (I-a) (40 mg/Kg) and paclitaxel (3 mg/Kg), the seventh group received a combination of compound (I-a) (60 mg/Kg) and paclitaxel (2 mg/Kg), the eight group received a combination of compound (I-a) (60 mg/Kg) and paclitaxel (3 mg/Kg) and the ninth group received the vehicle (14% DMSO, 14% Tween 80 and 72% PBS). Tumor growth was monitored three times per week with a sliding caliper.

HeLa cells [4] = test: Cell cycle distribution by flow cytometry; format: cell-based; settings: for cell cycle effect: HeLa
Procedure: For flow cytometry analysis, Hela cells were treated with the indicated concentrations of compound (I-a) for 12 hours, 24 hours and 48 hours. Cells were then harvested and washed by centrifugation in PBS. Then, 10^5 cells were fixed in 1 mL of 70% methanol at 4° C. overnight. Following two washes with PBS the cells were incubated with 50 μg·mL^−1 propidium iodide and 0.2 mg·mL^−1 RNase A/PBS for 30 min at 37° C. before analysis. The percentage of cells in the specific cell-cycle phases (G0, G1, S, G2, and M) was determined using an Accuri C6 flow cytometer (Becton Dickinson). The results are expressed as the mean±SD of three separate experiments. The significance was determined by a Student's t-test (*p<0.05, **p<0.01, ***p<0.0001, compared with the control). Flow cytometry analysis was performed using HeLa cells. […] The results are expressed as the mean±SD of three separate experiments. The significance was determined by a Student's t-test (*p<0.05, **p<0.01, ***p<0.0001, compared with the control).

HeLa cells [5] = test: FITC Annexin V apoptosis assay by flow cytometry; format: cell-based
Procedure: Apoptosis assay was performed with FITC Annexin V Apoptosis Detection Kit I (BD Biosciences, #556547) using flow cytometry and analyzed by FCS express software.

[6] = compound alone, HeLa cells, read-out: GI50 (50% of growth inhibition)
[7] = combination study, each compound administered separately (paclitaxel 2 or 3 mg/Kg, (I-a) 40 or 60 mg/Kg)
[8] = paclitaxel 5 nM, after 15 hours

In the case of `Cc1cc(-n2ccc(C=O)c2)c(C)c2c1[nH]c1ccc(Cl)cc12` [(I-c)], the GI50 (HeLa cells [1]; [6]) is reported as 2000 nM.
In the case of `Cc1cc(-n2ccc(C=O)c2)c(C)c2c1[nH]c1ccc(Br)cc12` [Compound (I-h)], the GI50 (HeLa cells [1]; [6]) is reported as 1060 nM.
`Cc1cc(-n2cccc2)c(C)c2c1[nH]c1ccc(Cl)cc12` [Compound (I-a)] was tested, and the “toxicity toward non-cancerous cells” value (RPE-1 cells; 72 hours) was “does not induce additional toxicity”, the “effect on cell viability in combination with PTX” value (RPE-1 cells; compound at 25 μM) was “able to synergistically affect cell viability” and the “effect of the combination with paclitaxel on cell viability” value (4T1 cells) was “synergistic effect”. For the same compound, the “% time spent growing” value [2] was 60.40 ± 0.25 %, the “% time spent in pause” value [2] was 39.60 ± 0.31 % and the “Catastrophe frequency (min^−1 ± SE)” value [2] was 2.74 ± 0.70 min⁻¹. The “Growth rate (μm/min ± SE)” value [2] was 10.20 ± 0.05 μm/min, the “Catastrophe frequency (μm^−1 ± SE)” value ([2]; distance-based) was 0.46 ± 0.05 *** μm^−1 and the “cytotoxicity of the compound on its own” value (HeLa cells [1]; 12 μM, HeLa cells) was “not cytotoxic”. The GI50 (HeLa cells [1]; [6]) was 19400 to 21800 nM, the “chromosome congression in mitotic cells” value (HeLa cells [3]; 12 μM) was “chromosome congression defects were visible in several mitotic cells” and the “chromosome congression in mitotic cells” value (HeLa cells [3]; 25 μM) was “occurrence of such defects was increased”. The “effect on microtubule network in interphase cells” value (HeLa cells [3]; 12-25 μM, 5-hour exposure) was “does not visibly perturb microtubule network”, the tumor size (HeLa cell tumors; [7]) was “no effect” and the tumor size (HeLa cell tumors; first experiment, compound (I-a) alone 15 to 60 mg/Kg i.v. every two days) was “did not induce a significant effect on tumor size”. The “weight of treated animals versus vehicle-treated animals” value (HeLa cell tumors; first experiment) was “not significantly different”, the cell cycle effect (HeLa cells [4]; compound (I-a) 12 μM) was “blocked in G2/M phase” and the cell cycle effect (HeLa cells [4]; compound (I-a) 25 μM) was “the large majority of the cells is blocked in prometaphase”. The “effect on cell apoptosis when combined with paclitaxel” value (HeLa cells [5]) was “synergistic effect”.
`Cc1cc(-n2ccc(CO)c2)c(C)c2c1[nH]c1ccc(Cl)cc12` [Compound (I-s)] gave a GI50 (HeLa cells [1]; [6]) of 2000 nM.
Compound `Cc1cc(-n2cccc2)c(C)c2c1[nH]c1ccc(Br)cc12` [(I-f)] has a GI50 (HeLa cells [1]; [6]) of 16200 nM.
`CC(=O)O[C@H]1C(=O)[C@@]2(C)[C@H]([C@H](OC(=O)c3ccccc3)[C@]3(O)C[C@H](OC(=O)[C@H](O)[C@@H](NC(=O)c4ccccc4)c4ccccc4)C(C)=C1C3(C)C)[C@]1(OC(C)=O)CO[C@@H]1C[C@@H]2O` [Paclitaxel, paclitaxel] was tested, and the GI50 (RPE-1 cells; Homo sapiens, 72 hours) was 7 nM, the GI50 (HeLa cells [1]; 0.1 μM compound (I-h) added to paclitaxel, read-out: GI50 of Paclitaxel) was 1.25 nM and the GI50 (HeLa cells [1]; 0.2 μM compound (I-h) added to paclitaxel, read-out: GI50 of Paclitaxel) was 1.07 nM. It also gave a GI50 (HeLa cells [1]; 0.4 μM compound (I-h) added to paclitaxel, read-out: GI50 of Paclitaxel) of 0.79 nM, a GI50 (HeLa cells [1]; 0.8 μM compound (I-e) added to paclitaxel, read-out: GI50 of Paclitaxel) of 1.36 nM and a GI50 (HeLa cells [1]; 1.2 μM compound (I-c) added to paclitaxel, read-out: GI50 of Paclitaxel) of 0.75 nM. The GI50 (HeLa cells [1]; 1.2 μM compound (I-s) added to paclitaxel, read-out: GI50 of Paclitaxel) was 0.75 nM, the GI50 (HeLa cells [1]; 1.5 μM compound (I-e) added to paclitaxel, read-out: GI50 of Paclitaxel) was 1.25 nM and the GI50 (HeLa cells [1]; 1.5 μM compound (I-f) added to paclitaxel, read-out: GI50 of Paclitaxel) was 1.36 nM. It also gave a GI50 (HeLa cells [1]; 3 μM compound (I-a) added to paclitaxel, read-out: GI50 of Paclitaxel) of 1.36 nM, a GI50 (HeLa cells [1]; 3 μM compound (I-e) added to paclitaxel, read-out: GI50 of Paclitaxel) of 1.2 nM and a GI50 (HeLa cells [1]; 3 μM compound (I-f) added to paclitaxel, read-out: GI50 of Paclitaxel) of 1.25 nM. It also gave a GI50 (HeLa cells [1]; 3 μM compound (I-m) added to paclitaxel, read-out: GI50 of Paclitaxel) of 1.5 nM, a GI50 (HeLa cells [1]; 3 μM compound (I-n) added to paclitaxel, read-out: GI50 of Paclitaxel) of 1.5 nM and a GI50 (HeLa cells [1]; 6 μM compound (I-a) added to paclitaxel, read-out: GI50 of Paclitaxel) of 1.2 nM. The GI50 (HeLa cells [1]; 6 μM compound (I-f) added to paclitaxel, read-out: GI50 of Paclitaxel) was 0.88 nM, the GI50 (HeLa cells [1]; 6 μM compound (I-m) added to paclitaxel, read-out: GI50 of Paclitaxel) was 1.5 nM and the GI50 (HeLa cells [1]; 6 μM compound (I-n) added to paclitaxel, read-out: GI50 of Paclitaxel) was 1.5 nM. For the same compound, the GI50 (HeLa cells [1]; 12 μM compound (I-a) added to paclitaxel, read-out: GI50 of Paclitaxel) was 0.68 nM, the GI50 (HeLa cells [1]; 12 μM compound (I-m) added to paclitaxel, read-out: GI50 of Paclitaxel) was 1.25 nM and the GI50 (HeLa cells [1]; 12 μM compound (I-n) added to paclitaxel, read-out: GI50 of Paclitaxel) was 1.25 nM. The GI50 (HeLa cells [1]; paclitaxel alone (0 μM compound added), HeLa cells, read-out: GI50 of Paclitaxel) was 1.5 nM, the tumor size (HeLa cell tumors; [7]) was “no effect” and the “weight of treated animals versus vehicle-treated animals” value (HeLa cell tumors; first experiment) was “not significantly different”. The tumor size (HeLa cell tumors; first experiment, paclitaxel 4 and 8 mg/Kg i.v. every two days during 10 days) was “important reduction of tumor size”, the “cell population blocked in G2/M phase” value (HeLa cells [4]; [8]) was “half of the cell population” and the cells in apoptosis (HeLa cells [4]; [8]) was ~20%. For the same compound, the “% of apoptosis” value (HeLa cells [5]; Paclitaxel 1 nM) was 13.00 ± 0.48%.
`Cc1cc(-n2cccc2)c(C)c2c1[nH]c1cc(Cl)ccc12` [(I-e)] showed a GI50 (HeLa cells [1]; [6]) of 14800 nM.
